Test results taken from US9623021B2, “Nuclear receptor binding agents” (GTX, Inc., priority 2007, dated 2017).
Entries after “also recorded” stand apart in the source; their conditions may differ. Where two headings read alike, the source gives them in different places.

Columns and labels:
[1] = target: ERβ ligand binding domain (Homo sapiens (Human), UniProt Q92731); assay: Competitive [3H]-estradiol radioligand binding, ERβ (Example 21); details: for Ki Ratio (ER-α/ER-β): ratio between the binding constants of ER-α and ER-β
Procedure: (§1) ER binding affinity was determined via one of the following methods:
(§2) Briefly, the incubation mixture was filtered through a high affinity protein binding filter, and washed several times to remove any unbound radioactivity. The filter plate was air dried and sealed on the bottom.
(§3) Following incubation, plates were harvested onto GF/B filters and radioactivity was measured with a TopCount NXT (PerkinElmer). Nonspecific binding was subtracted from total binding to yield specific binding.

ER-α = ER-α (Rattus norvegicus (Rat), UniProt P06211); format: cell-based; details: for Estradiol activity at 100 nM, ER-α: 100 nM NRBA compared to 1 nM estradiol
Procedure: COS or 293 cells were plated in DME without phenol red+10% cs FBS at 90,000 cells per well in 24 well plates, and were transfected with 0.25 μg of the vector “ERE-LUC”, where a firefly luciferase gene was driven by two estrogen responsive elements and 0.02 μg of the control CMV-LUC, Renilla where a luciferase gene was driven by a CMV promoter. […] All the receptors were cloned from rat tissue into the PCR3.1 vector backbone. Twenty four hours post transfection, cells were treated with compounds of this invention, estrogen, DHT, and other NRBAs or combinations thereof. Cells were harvested 48 hrs after transfection, and assayed for firefly and Renilla luciferase activity.

ARPE-19 cells = assay: Fluorescent detection of intracellular ROS in ARPE-19 cells (tBH oxidative stress); details: 150 μM tBH, FIG. 20B
[2] = target: ERα ligand binding domain (Homo sapiens (Human), UniProt P03372); assay: Competitive [3H]-estradiol radioligand binding, ERα (Example 21)
Procedure: as §1, §2, §3

SHP promoter = assay: SHP promoter-luciferase in HEK-293 cells transfected with FXR and ER-β; format: cell-based; details: FXR and ER-β plasmids, FIG. 12E right panel
Procedure: FIG. 12 depict the effect of ER-β ligand on PPAR-γ function through ligand binding domain (LBD). (A). HEK-293 cells were transfected with 0.25 μg PPRE-LUC, 5 ng CMV-renilla LUC and the indicated receptors (PPAR-γ and ER-β for the left panel and PPAR-α and ER-β for the right panel). The cells were treated 24 hrs after transfection with the indicated ligands and harvested 48 hrs after transfection and firefly luciferase activity was measured and normalized to renilla luciferase. (B). H475 in ER-β LBD is important for its function. H475 in ER-β LBD was mutated to alanine (A) using a site directed mutagenesis kit. Transactivation assay was performed as described in panel A in HEK-293 cells with a titration of ER-β ligands in wild type or ER-β H475A. (C). […] HEK-293 cells were transfected with 0.25 μg PPRE-LUC, 5 ng CMV-renilla LUC and 50 ng of the indicated receptors (PPAR-γ or PPAR-γ and wild type ER-β or PPAR-γ and ER-β H475A). The cells were treated 24 hrs after transfection with the indicated ligands and harvested 48 hrs after transfection and firefly luciferase activity was measured and normalized to renilla luciferase. (D). […] HepG2 cells were transfected with 0.25 μg PPRE-LUC, 5 ng CMV-renilla LUC, 0.5 μg PGC-1 or vector backbone and 100 ng of the indicated receptors (PPAR-γ or PPAR-γ and wild type ER-β or PPAR-γ and ER-β H475A for top panels and PPAR-α or PPAR-α and ER-β for bottom panel). The cells were treated 24 hrs after transfection with the indicated ligands and harvested 48 hrs after transfection and firefly luciferase activity was measured and normalized to renilla luciferase. (E). SHP-1 is an ER-β specific target gene. HEK-293 cells were transfected with 0.25 μg SHP-LUC, 5 ng CMV-renilla LUC and 50 ng of the indicated receptors (FXR and ER-α for the left panel and FXR and ER-β for the right panel). The cells were treated 24 hrs after transfection with the indicated ligands and harvested 48 hrs after transfection and firefly luciferase activity was measured and normalized to renilla luciferase. […]

ER-β = ER-β (Rattus norvegicus (Rat), UniProt Q62986); assay: ER-β transactivation, ERE-LUC reporter in COS or 293 cells (Example 21B); format: cell-based
uterus = assay: Uterotropic assay; details: 50 μg/kg/day s.c., 3 days
Procedure: Statistical differences among groups were evaluated by one-way ANOVA. Rats were treated for 3 consecutive days and then sacrificed 24 h after the last dose. The body of the uterus was cut just above its junction with the cervix and at the junction of the uterine horns with the ovaries. The uterus was weighed with and without intrauterine fluid. Statistical comparisons were made between the weights of empty uteri.

ER-β, sequence (Q62986 whole entry): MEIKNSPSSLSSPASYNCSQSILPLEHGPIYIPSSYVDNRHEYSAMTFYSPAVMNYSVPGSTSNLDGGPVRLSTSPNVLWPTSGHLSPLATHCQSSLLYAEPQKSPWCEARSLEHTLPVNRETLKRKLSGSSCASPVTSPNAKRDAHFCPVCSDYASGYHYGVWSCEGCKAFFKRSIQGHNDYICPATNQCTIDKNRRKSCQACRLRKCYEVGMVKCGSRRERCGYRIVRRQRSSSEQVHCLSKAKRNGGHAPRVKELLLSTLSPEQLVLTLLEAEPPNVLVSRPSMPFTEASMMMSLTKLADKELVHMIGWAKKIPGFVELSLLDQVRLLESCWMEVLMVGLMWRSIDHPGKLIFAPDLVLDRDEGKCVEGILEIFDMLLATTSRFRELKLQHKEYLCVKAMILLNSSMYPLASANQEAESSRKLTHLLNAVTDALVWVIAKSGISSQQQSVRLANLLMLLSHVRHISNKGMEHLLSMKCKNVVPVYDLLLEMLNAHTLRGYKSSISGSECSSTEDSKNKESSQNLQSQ
ERβ ligand binding domain, sequence (Q92731 264-498, species assumed): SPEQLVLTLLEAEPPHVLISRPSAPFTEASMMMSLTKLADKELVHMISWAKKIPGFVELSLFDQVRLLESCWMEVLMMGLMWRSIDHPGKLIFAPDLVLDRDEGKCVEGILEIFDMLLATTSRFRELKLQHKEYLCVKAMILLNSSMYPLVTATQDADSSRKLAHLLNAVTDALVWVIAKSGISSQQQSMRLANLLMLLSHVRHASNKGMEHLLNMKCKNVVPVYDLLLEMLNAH
ERα ligand binding domain, sequence (P03372 whole entry, looked up, species assumed, the tested form may be a part): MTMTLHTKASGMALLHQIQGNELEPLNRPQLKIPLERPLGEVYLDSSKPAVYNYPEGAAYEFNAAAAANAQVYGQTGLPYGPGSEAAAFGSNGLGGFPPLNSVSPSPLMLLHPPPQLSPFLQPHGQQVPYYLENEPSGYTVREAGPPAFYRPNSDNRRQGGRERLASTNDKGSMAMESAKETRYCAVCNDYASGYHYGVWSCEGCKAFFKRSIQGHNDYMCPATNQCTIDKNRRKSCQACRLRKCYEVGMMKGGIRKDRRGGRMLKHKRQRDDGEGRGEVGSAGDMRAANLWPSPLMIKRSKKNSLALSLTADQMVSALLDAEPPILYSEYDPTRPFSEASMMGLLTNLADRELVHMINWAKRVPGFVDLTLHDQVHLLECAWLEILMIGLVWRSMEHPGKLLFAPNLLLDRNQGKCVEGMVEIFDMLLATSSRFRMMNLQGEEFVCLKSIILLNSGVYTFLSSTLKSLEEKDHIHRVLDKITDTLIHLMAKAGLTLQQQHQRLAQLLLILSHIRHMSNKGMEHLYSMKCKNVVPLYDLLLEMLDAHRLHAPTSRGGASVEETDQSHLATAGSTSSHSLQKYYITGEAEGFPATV

Question: Which “Ki Ratio (ER-α/ER-β)” value [1] does the source give for `COc1ccc(-c2cn(-c3ccc(O)cc3)c(=O)c3ccc(O)cc23)cc1` [Compound 15b, 6-hydroxy-2-(4-hydroxyphenyl)-4-(4-methoxyphenyl)isoquinolin-1(2H)-one] here?
Answer: The value was 8.3.

Question: For `COc1cc(O)c2c(=O)n(-c3ccc(O)cc3)cc(Br)c2c1` [Compound 12v, 4-bromo-8-hydroxy-2-(4-hydroxyphenyl)-6-methoxyisoquinolin-1(2H)-one], which “Estradiol activity at 100 nM, ER-α” value (ER-α) is on record?
Answer: Its value is 17%.

Question: `C=Cc1cn(-c2ccc(O)cc2)c(=O)c2c(O)cc(O)cc12` [Compound 14l, 6,8-dihydroxy-2-(4-hydroxyphenyl)-4-vinylisoquinolin-1(2H)-one] was tested. Which Ki [1] did it give?
Answer: Its Ki is 6 nM.

Question: What about the “prevention of ROS formation / oxidative damage” value (ARPE-19 cells) of the same compound?
Answer: Its value is “protected ARPE-19 cells from oxidative damage”.

Question: And the “Estradiol activity at 100 nM, ER-α” value (ER-α)?
Answer: Its value is 50%.

Question: And the Ki [2]?
Answer: The Ki was 76 nM.

Question: For `CC(C)c1onc(-c2c(Cl)cccc2Cl)c1COc1ccc(/C=C/c2cccc(C(=O)O)c2)c(Cl)c1` [GW4064, reference compound], which SHP activity (SHP promoter) is on record?
Answer: Its SHP activity is “increased its activity significantly”.

Question: How did the “Ki Ratio (ER-α/ER-β)” value [1] turn out when `O=c1c2ccc(O)cc2c(I)cn1-c1ccc(O)cc1` [Compound 12h, 6-hydroxy-2-(4-hydroxyphenyl)-4-iodoisoquinolin-1(2H)-one] was run?
Answer: Its value is 22.

Question: With `COc1cc(O)c2c(=O)n(-c3ccc(O)cc3)ccc2c1C#N` [Compound 12q, 8-hydroxy-2-(4-hydroxyphenyl)-6-methoxy-1-oxo-1,2-dihydroisoquinoline-5-carbonitrile] as the compound, how does the “Estradiol activity at 100 nM, ER-α” value (ER-α) read?
Answer: Its value is 25%.

Question: For `O=c1c2ccc(O)cc2c(Cl)cn1-c1ccc(O)cc1` [Compound 12f, 4-chloro-6-hydroxy-2-(4-hydroxyphenyl)-isoquinolin-1(2H)-one], which “Ki Ratio (ER-α/ER-β)” value [1] is on record?
Answer: Its value is 61.

Question: How did the “ER-α RLU/RenRLU” value (ER-α; dose 0.1 nM) turn out when `O=c1c2c(O)cc(O)cc2ccn1-c1ccc(O)cc1` [Compound 12l, 6,8-dihydroxy-2-(4-hydroxyphenyl)-isoquinolin-1(2H)-one] was run?
Answer: The value was 0.07 RLU/RenRLU.

Question: And the “ER-α RLU/RenRLU” value (ER-α; dose 1 nM)?
Answer: Its value is 0.07 RLU/RenRLU.

Question: What about the “ER-α RLU/RenRLU” value (ER-α; dose 10 nM) of the same compound?
Answer: Its value is 0.07 RLU/RenRLU.

Question: And the “ER-α RLU/RenRLU” value (ER-α; dose 100 nM)?
Answer: Its value is 0.12 RLU/RenRLU.

Question: And the “ER-α RLU/RenRLU” value (ER-α; dose 1000 nM)?
Answer: The value was 0.24 RLU/RenRLU.

Question: What about the “ER-β RLU/RenRLU” value (ER-β; dose 0.1 nM) of the same compound?
Answer: Its value is 0.06 RLU/RenRLU.

Question: What about the “ER-β RLU/RenRLU” value (ER-β; dose 1 nM) of the same compound?
Answer: Its value is 0.07 RLU/RenRLU.

Question: What about the “ER-β RLU/RenRLU” value (ER-β; dose 10 nM) of the same compound?
Answer: The value was 0.16 RLU/RenRLU.

Question: What about the “ER-β RLU/RenRLU” value (ER-β; dose 100 nM) of the same compound?
Answer: The value was 0.46 RLU/RenRLU.

Question: And the “ER-β RLU/RenRLU” value (ER-β; dose 1000 nM)?
Answer: The value was 0.55 RLU/RenRLU.

Question: How did the “uterine growth / uterine weight” value (uterus) turn out when `C[C@]12CC[C@@H]3c4ccc(O)cc4CC[C@H]3[C@@H]1CC[C@@H]2O` [Estradiol] was run?
Answer: Its value is “stimulated the proliferation of uterus significantly”.

Question: Which “Ki Ratio (ER-α/ER-β)” value [1] does the source give for `O=c1c2c(O)cc(O)cc2ccn1-c1ccc(O)c(F)c1` [Compound 12s, 2-(3-fluoro-4-hydroxyphenyl)-6,8-dihydroxyisoquinolin-1(2H)-one] here?
Answer: Its value is 25.

Question: And the “Estradiol activity at 100 nM, ER-α” value (ER-α)?
Answer: The value was 29%.

Question: How did the “Ki Ratio (ER-α/ER-β)” value [1] turn out when `O=c1c2c(O)cc(O)cc2c(Br)cn1-c1ccc(O)c(F)c1` [Compound 12z, 4-bromo-6,8-dihydroxy-2-(3-fluoro-4-hydroxyphenyl)isoquinolin-1(2H)-one] was run?
Answer: Its value is 12.

Question: And the “prevention of ROS formation / oxidative damage” value (ARPE-19 cells)?
Answer: The value was “able to prevent ROS formation as well as estradiol; also recorded: protected ARPE-19 cells from oxidative damage”.

Question: What about the Ki [2] of the same compound?
Answer: The Ki was 40 nM.

Question: How did the Ki [1] turn out when `Oc1ccc(-n2ccc3cc(O)cc(O)c3c2=S)cc1` [Compound 12p, 2-(4-hydroxyphenyl)-6,8-dihydroxy-isoquinoline-1(2H)-thione] was run?
Answer: Its Ki is 17 nM.

Question: What about the “Ki Ratio (ER-α/ER-β)” value [1] of the same compound?
Answer: The value was 8.

Question: What about the “Estradiol activity at 100 nM, ER-α” value (ER-α) of the same compound?
Answer: Its value is 45%.
